According to patent publication US20150150765A1, “VOLATILE OIL FOR COSMETICS” (NOF Corporation, priority 2012, published 2015):

What was measured:
[1] = order of volatility, sample spread on filter paper and dried; type: physicochemical; details: 0.1 g on filter paper of 110 mm diameter; rank by speed to be completely dry (1 = fastest)
Description: It is noted that for the order of volatility in Table 1, 0.1 g of each sample was spread on a filter paper of 110 mm in diameter, and the weight was measured after drying for two hours. Ranking was based on the order of the speed that it took the samples to be completely dry and 0 g in weight.

[2] = evaluation of smoothness of hair (MIU friction resistance of hair surface); design: species or system human; details: coefficient of friction of bleached hair, hair untreated with oil = 100%; below 100% = improvement; 20° C., 40% humidity
Description: (§1) [Evaluation of Smoothness]
With the volatile oil for hair cosmetics of the present invention, coefficients of friction were measured by the method shown below, and the improvement of smoothness, when applied to hair, was evaluated.
Method of Evaluating Smoothness (Improvement after Treating Bleached Hair with Each Sample)
(Evaluation) MIU (Resistance: μ): Friction resistance of hair surface (Measuring Equipment) Friction tester (from Kato Tech Co., Ltd.) (Measuring Conditions) Measurement environment at 20° C.; 40% of Humidity; Constant temperature and humidity chamber; Number of hair for measurement: ten; Contactor: Silicon rubber; Load: 25 gf (Hair Employed) Bleached healthy human hair that was purchased
(§2) (Applying Various Oils and Preparing Tests)
(§3) (1) One hair is picked out of the bundle of human hair. Each sample is dropped onto an index finger cushion from a syringe, and is blended with a thumb.
(§4) (2) The picked hair is pinched between the index finger and the thumb, and is coated with a sample from its root to the end.
(3) After the sample is coated, excess sample is wiped off with a waste cloth made of paper (Trade Name: Kim Wipes). […]
(Assessment) With the coefficient of friction of hair untreated with oil as 100%, smoothness is evaluated after being treated with each sample. […]

hair tensile strength = details: breaking load of healthy human hair, untreated with oil (blank) = 100%; above 100% = improvement; 25° C.
Description: (Measuring Equipment) FUDOH RHEO METER RTC from Rheotech Co., Ltd. (Measuring Condition) Measurement environment: Inside constant temperature chamber at 25° C.
(Hair Employed) Healthy Human Hair
as §2
Beforehand, a bundle of unbleached healthy hair for measurement is placed in a constant temperature chamber for one day.
as §3, §4
(3) After the sample is coated, excess oil is wiped off with a waste cloth made of paper (Trade Name: Kim Wipes).
(4) After ten human hairs are treated with each sample, hair diameter is measured with a diameter.
(5) The hair is fixed with a jag of an equipment, and is given a load by lowering a base onto which the hair is fixed.
(6) The load is recorded when the hair is broken by the load.
(Assessment) With the tensile strength of hair untreated with oil (blank) as 100%, tensile strength was evaluated after being treated with each sample. If there is an improvement in comparison with the blank, the number would be higher than 100%.

[3] = evaluation of smoothness of skin (MIU friction resistance of skin surface); type: in vivo; details: coefficient of friction of skin, inside upper arm, before oil treatment = 100%; below 100% = improvement
Description: as §1
With the volatile oil for external preparations for skin of the present invention, coefficients of friction were measured by the following method, and the improvement of smoothness when applied to skin was evaluated.
Method of Evaluating Smoothness (Improvement after Treating Skin with Each Sample)
(Evaluation) MIU (Resistance: μ): Friction resistance of skin surface (Measuring Equipment) Friction tester (from Kato Tech Co., Ltd.) (Measuring Conditions) Measurement environment at 20° C.; 40% of Humidity; Constant temperature and humidity chamber; Measurement site: Inside upper arm; Contactor: Silicon rubber; Load: 25 gf
as §2
(§5) (1) The measurement site of a subject is washed with neutral detergent and tap water and then dried. The subject goes in the constant temperature and humidity chamber 30 min. before measurement to allow the measurement site to get used to the environment inside the chamber.
(2) Coefficients of friction at sites to be applied are measured before applying samples. […]
(4) After the samples are applied, the coefficients of friction at applied sites are measured every thirty minutes.
(Assessment) With the coefficient of friction at measurement sites before oil treatment as 100%, smoothness was evaluated after being treated with each sample. […]

[4] = evaluation of moisture retention (amount of moisture in stratum corneum, SKICON-200EX); type: in vivo; details: inside human forearm, two hours after applying 10 μL; blank = 100%; above 100% = improvement
Description: [Evaluation of Moisture Retention]
With the volatile oil for external preparations for skin of the present invention, the amount of moisture in a stratum corneum was measured by the method shown below, and the amount of moisture (moisture retention) was evaluated.
(Measuring Equipment) SKICON-200EX (from I.B.S. Co., Ltd.)
(§6) (Measuring Conditions) Temperature of 20° C., Humidity of 40%
(Testing Method) Samples are applied inside a human forearm, and the amount of moisture is measured after two hours.
as §2, §5
(2) Before applying samples, the amount of moisture is measured at a site to be applied that is marked in a circle 1 cm in diameter.
(3) Samples are dropped by 10 μL with a micropipette onto a measurement site that is marked in a circle with 1 cm in diameter, and are applied to skin at the marking site.
(4) The amount of moisture is measured at the measurement site two hours after being applied.
(Assessment) With the amount of water at measurement sites with no oil treatment (blanks) as 100%, the amount of moisture was evaluated after being treated with each sample. […]

[5] = evaluation of barrier property (evaporated water quantity, Tewameter); type: in vivo; details: inside human forearm, two hours after applying 10 μL; blank = 100%; below 100% = improvement
Description: [Evaluation of Barrier Property]
With the volatile oil for external preparations for skin of the present invention, an evaporated water quantity in a stratum corneum was measured by the method shown below, and the evaporated water quantity (barrier property) was evaluated.
(Measuring Equipment) Tewameter™210 (from Courage+Kahazaka Co., Ltd.)
as §6
(Testing Method) Samples are applied inside a human forearm, and an evaporated water quantity is measured after two hours.
as §2, §5
(2) Before applying samples, an evaporated water quantity is measured at a site to be applied that is marked in a circle 1 cm in diameter. […]
(4) The evaporated water quantity is measured at the measurement site two hours after being applied.
(Assessment) With the evaporated water quantity at measurement sites with no oil treatment (blanks) as 100%, the evaporated water quantity was evaluated after being treated with each sample. […]

[6] = evaluation of skin viscoelasticity (Cutometer); type: in vivo; details: inside human forearm, two hours after applying 10 μL; blank = 100%; above 100% = improvement
Description: [Evaluation of Skin Viscoelasticity]
With the volatile oil for external preparations for skin of the present invention, skin viscoelasticity was measured by the method shown below, and the skin viscoelasticity was evaluated.
(Measuring Equipment) Cutometer (from I.B.S. Co., Ltd.)
as §6
(Testing Method) Samples are applied inside a human forearm, and viscoelasticity is measured after two hours.
as §2, §5
(2) Before applying samples, viscoelasticity is measured at a site to be applied that is marked in a circle with 1 cm in diameter.
(3) Samples are dropped by 10 μL with a micropipette onto a measurement site that is marked in a circle with 1 cm in diameter, and are applied, to skin at the marking site.
(4) The viscoelasticity is measured at the measurement site two hours after being applied.
(Assessment) With the […] at measurement sites with no oil treatment (blanks) as 100%, skin viscoelasticity was evaluated after being treated with each sample. […]

For `C[Si]1(C)O[Si](C)(C)O[Si](C)(C)O[Si](C)(C)O[Si](C)(C)O1` [compound 1], the order of volatility [1] was 3, the “smoothness (%)” value [2] was 83% and the “tensile strength (%)” value (hair tensile strength) was 120%. For the same compound, the “smoothness (%)” value [3] was 108%, the “water quantity in stratum corneum (%)” value [4] was 120% and the “evaporated water quantity (%)” value [5] was 106%. The “skin viscoelasticity (%)” value [6] was 95%.
In the case of `CC(CC(C)(C)C)CC(C)(C)C` [compound 2, 2,2,4,6,6-pentamethylheptane], the order of volatility [1] is reported as 1, the “smoothness (%)” value [2] is reported as 78% and the “tensile strength (%)” value (hair tensile strength) is reported as 125%. For the same compound, the “smoothness (%)” value [3] was 104%, the “water quantity in stratum corneum (%)” value [4] was 112% and the “evaporated water quantity (%)” value [5] was 105%. For the same compound, the “skin viscoelasticity (%)” value [6] was 97%.
